Laboratory results: ChEMBL document CHEMBL4308859, “Discovery of Novel Central Nervous System Penetrant Metabotropic Glutamate Receptor Subtype 2 (mGlu2) Negative Allosteric Modulators (NAMs) Based on Functionalized Pyrazolo[1,5- a]pyrimidine-5-carboxamide and Thieno[3,2- b]pyridine-5-carboxamide Cores” (J Med Chem, 2018)

Assays:
[1] = Fraction unbound in rat plasma after 4 hrs by equilibrium dialysis method; assay type: ADME, cell-free
[2] = biological target: Metabotropic glutamate receptor 2 (Rattus norvegicus, UniProt P31421); assay: Negative allosteric modulation of rat mGlu2R expressed in HEK293 cells co-expressing Galpha15 assessed as decrease in glutamate-induced calcium mobilization preincubated for 2.3 mins followed by glutamate addition and measured after 1.7 mins by Fluo-4-AM dye based fluorescence assay; assay type: functional, cell-based
Sequence of Metabotropic glutamate receptor 2 (Rattus norvegicus, UniProt P31421) (P31421 whole entry): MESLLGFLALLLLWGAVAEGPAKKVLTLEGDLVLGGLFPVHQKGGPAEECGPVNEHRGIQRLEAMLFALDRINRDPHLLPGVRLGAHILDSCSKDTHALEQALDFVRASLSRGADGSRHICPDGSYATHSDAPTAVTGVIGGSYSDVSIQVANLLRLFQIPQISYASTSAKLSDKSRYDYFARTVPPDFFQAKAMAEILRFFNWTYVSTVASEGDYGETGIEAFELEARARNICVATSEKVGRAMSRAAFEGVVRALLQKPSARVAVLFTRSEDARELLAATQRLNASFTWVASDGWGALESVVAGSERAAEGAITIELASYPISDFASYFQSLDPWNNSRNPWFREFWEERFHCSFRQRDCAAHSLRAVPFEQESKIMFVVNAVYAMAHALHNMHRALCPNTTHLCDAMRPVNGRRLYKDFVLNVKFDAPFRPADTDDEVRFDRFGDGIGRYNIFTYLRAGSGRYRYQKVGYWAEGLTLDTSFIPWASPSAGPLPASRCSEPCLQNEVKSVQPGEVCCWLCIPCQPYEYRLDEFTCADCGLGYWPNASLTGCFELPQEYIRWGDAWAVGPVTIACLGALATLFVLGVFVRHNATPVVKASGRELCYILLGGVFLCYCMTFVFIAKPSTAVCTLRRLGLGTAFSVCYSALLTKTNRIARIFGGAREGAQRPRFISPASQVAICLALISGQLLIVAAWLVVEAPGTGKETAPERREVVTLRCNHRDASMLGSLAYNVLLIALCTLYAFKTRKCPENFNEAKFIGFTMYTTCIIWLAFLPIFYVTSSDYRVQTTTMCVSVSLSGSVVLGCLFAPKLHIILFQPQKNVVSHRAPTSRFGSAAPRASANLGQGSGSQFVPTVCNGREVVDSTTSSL

[3] = biological target: Metabotropic glutamate receptor 2 (Rattus norvegicus) (UniProt P31421); assay: Negative allosteric modulation of rat mGlu2R expressed in HEK293 cells co-expressing Galpha15 assessed as decrease in glutamate-induced calcium mobilization at 30 uM preincubated for 2.3 mins followed by glutamate addition and measured after 1.7 mins by Fluo-4-AM dye based fluorescence assay relative to control; assay type: functional, cell-based
Sequence of Metabotropic glutamate receptor 2 (Rattus norvegicus) (P31421 19-872 limits assumed): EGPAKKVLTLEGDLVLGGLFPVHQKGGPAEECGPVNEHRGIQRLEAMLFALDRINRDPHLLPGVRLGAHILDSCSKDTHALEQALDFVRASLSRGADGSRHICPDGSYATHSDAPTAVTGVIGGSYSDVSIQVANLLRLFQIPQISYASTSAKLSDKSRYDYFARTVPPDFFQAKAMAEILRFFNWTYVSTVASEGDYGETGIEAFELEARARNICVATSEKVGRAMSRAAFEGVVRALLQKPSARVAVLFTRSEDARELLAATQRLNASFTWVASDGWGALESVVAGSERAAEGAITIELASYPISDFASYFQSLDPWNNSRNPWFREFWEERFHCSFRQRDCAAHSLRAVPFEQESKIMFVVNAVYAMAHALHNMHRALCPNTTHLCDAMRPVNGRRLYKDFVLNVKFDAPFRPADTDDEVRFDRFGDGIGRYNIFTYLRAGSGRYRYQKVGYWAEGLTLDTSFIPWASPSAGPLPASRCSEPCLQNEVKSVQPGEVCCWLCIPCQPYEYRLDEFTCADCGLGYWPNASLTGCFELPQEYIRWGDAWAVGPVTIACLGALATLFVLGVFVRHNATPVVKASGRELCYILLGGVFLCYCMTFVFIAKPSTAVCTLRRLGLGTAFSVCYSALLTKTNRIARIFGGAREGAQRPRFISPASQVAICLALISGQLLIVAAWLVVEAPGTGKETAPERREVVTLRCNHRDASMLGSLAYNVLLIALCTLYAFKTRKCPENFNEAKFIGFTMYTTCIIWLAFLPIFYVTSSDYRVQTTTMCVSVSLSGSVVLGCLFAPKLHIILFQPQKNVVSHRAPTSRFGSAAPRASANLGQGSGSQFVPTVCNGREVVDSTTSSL

[4] = Fraction unbound in rat brain; assay type: ADME, tissue-based
[5] = Fraction unbound in human plasma after 4 hrs by equilibrium dialysis method; assay type: ADME, cell-free
[6] = Brain to plasma partition coefficient, Kp of the compound in Sprague-Dawley rat at 0.2 mg/kg, iv administered as cassette dose by LC-MS/MS analysis; assay type: ADME, organism-based; details: brain and plasma
[7] = Unbound brain to plasma ratio in Sprague-Dawley rat at 0.2 mg/kg, iv administered as cassette dose by LC-MS/MS analysis; assay type: ADME, organism-based; details: brain and plasma, read-out: K(p,uu,brain)
[8] = biological target: Metabotropic glutamate receptor 3 (Homo sapiens, UniProt Q14832); assay: Negative allosteric modulation of mGlu3R (unknown origin)
Sequence of Metabotropic glutamate receptor 3 (Q14832 whole entry): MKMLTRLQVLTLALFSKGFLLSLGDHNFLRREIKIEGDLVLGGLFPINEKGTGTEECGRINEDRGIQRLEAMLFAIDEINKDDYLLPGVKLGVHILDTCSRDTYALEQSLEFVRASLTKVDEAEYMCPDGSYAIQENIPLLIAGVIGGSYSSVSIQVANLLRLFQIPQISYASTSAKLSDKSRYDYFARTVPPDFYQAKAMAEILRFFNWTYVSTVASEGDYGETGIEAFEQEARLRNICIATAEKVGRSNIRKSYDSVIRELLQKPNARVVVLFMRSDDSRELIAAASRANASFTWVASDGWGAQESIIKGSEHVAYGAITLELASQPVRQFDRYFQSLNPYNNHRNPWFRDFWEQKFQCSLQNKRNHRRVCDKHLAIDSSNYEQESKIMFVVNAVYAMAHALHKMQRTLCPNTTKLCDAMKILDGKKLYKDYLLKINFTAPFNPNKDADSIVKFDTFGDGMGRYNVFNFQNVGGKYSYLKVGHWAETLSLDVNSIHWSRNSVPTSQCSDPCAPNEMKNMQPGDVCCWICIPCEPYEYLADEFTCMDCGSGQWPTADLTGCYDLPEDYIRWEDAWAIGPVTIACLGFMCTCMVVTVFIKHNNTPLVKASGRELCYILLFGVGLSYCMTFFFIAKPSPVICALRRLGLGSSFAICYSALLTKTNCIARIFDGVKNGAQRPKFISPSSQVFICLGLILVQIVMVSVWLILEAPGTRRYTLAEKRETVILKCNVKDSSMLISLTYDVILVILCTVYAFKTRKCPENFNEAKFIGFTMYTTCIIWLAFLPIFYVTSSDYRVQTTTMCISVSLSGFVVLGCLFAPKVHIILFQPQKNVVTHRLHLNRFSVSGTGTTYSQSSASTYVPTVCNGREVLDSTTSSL

[9] = biological target: Metabotropic glutamate receptor 2 (Homo sapiens, UniProt Q14416); assay: Negative allosteric modulation of mGlu2R (unknown origin)
[10] = Brain to plasma partition coefficient, Kp of the compound in rat; assay type: ADME; details: brain and plasma
[11] = Plasma clearance in mouse; assay type: ADME, organism-based
[12] = biological target: Metabotropic glutamate receptor 6 (Homo sapiens, UniProt O15303); assay: Negative allosteric modulation of mGlu6R (unknown origin)
[13] = biological target: Metabotropic glutamate receptor 7 (Homo sapiens, UniProt Q14831); assay: Negative allosteric modulation of mGlu7R (unknown origin)
[14] = biological target: Metabotropic glutamate receptor 5 (Homo sapiens, UniProt P41594); assay: Negative allosteric modulation of mGlu5R (unknown origin)
[15] = biological target: Metabotropic glutamate receptor 1 (Homo sapiens, UniProt Q13255); assay: Negative allosteric modulation of mGlu1R (unknown origin)
Sequence of Metabotropic glutamate receptor 1 (Q13255 whole entry): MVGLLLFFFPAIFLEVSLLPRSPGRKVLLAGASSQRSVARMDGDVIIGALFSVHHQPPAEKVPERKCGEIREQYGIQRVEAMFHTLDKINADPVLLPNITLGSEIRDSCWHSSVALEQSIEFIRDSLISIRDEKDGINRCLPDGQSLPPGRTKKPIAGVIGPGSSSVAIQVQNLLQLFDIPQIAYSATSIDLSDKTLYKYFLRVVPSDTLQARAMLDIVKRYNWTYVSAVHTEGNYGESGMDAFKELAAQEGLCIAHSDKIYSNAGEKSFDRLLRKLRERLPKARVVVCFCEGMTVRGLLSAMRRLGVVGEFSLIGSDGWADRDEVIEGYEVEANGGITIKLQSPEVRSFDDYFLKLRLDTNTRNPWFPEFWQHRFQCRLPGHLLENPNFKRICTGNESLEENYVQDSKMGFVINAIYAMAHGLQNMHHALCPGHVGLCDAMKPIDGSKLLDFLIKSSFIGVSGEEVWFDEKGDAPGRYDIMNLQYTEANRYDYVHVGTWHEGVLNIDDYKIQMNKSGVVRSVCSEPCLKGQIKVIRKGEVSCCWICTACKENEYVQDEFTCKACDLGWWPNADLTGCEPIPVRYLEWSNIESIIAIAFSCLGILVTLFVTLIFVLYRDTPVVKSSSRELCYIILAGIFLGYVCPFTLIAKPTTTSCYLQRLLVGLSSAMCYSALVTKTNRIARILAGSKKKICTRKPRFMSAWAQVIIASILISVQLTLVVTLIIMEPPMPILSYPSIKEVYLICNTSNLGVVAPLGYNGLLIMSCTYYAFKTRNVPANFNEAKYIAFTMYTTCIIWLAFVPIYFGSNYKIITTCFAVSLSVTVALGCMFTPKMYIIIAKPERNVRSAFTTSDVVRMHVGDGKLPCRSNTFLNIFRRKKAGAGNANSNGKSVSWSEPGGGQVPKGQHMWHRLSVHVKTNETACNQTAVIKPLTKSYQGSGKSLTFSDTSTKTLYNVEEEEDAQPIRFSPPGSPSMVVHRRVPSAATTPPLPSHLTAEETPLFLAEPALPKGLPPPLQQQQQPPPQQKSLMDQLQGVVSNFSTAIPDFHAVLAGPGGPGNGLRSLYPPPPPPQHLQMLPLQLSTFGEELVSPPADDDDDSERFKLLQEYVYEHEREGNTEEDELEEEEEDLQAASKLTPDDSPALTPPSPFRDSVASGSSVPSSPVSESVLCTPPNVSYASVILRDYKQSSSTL

[16] = biological target: Metabotropic glutamate receptor 8 (Homo sapiens, UniProt O00222); assay: Negative allosteric modulation of mGlu8R (unknown origin)
Sequence of Metabotropic glutamate receptor 8 (O00222 whole entry): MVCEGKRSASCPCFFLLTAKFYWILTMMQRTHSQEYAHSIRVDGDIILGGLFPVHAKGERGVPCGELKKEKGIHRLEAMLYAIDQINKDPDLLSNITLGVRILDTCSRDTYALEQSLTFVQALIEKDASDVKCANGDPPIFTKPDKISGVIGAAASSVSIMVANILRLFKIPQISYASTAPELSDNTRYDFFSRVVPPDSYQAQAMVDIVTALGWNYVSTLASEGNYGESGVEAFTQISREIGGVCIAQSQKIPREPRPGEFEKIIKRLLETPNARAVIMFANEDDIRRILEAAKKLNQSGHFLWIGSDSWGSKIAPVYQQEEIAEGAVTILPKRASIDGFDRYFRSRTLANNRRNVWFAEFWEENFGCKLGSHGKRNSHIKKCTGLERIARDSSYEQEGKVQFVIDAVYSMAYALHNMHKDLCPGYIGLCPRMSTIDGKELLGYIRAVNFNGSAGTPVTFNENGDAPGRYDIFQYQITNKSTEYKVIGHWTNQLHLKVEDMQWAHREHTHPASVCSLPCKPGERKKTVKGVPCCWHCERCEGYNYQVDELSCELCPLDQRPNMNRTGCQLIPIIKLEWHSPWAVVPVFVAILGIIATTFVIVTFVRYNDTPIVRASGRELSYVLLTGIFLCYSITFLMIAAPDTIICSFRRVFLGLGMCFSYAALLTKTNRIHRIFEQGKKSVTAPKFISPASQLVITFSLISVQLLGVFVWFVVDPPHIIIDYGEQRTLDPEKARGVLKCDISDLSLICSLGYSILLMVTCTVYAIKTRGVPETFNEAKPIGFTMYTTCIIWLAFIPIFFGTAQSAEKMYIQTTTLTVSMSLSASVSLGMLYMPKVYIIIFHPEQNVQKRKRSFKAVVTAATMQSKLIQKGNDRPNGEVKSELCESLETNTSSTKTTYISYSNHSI

[17] = biological target: Metabotropic glutamate receptor 4 (Homo sapiens, UniProt Q14833); assay: Negative allosteric modulation of mGlu4R (unknown origin)
[18] = Half life in Sprague-Dawley rat at 0.2 mg/kg, iv administered as cassette dose by LC-MS/MS analysis; assay type: ADME, organism-based; details: Sprague-Dawley, in vivo
[19] = Plasma clearance in Sprague-Dawley rat at 0.2 mg/kg, iv administered as cassette dose by LC-MS/MS analysis; assay type: ADME, organism-based
[20] = Volume of distribution at steady state in Sprague-Dawley rat at 0.2 mg/kg, iv administered as cassette dose by LC-MS/MS analysis; assay type: ADME, organism-based; details: in vivo, read-out: Vdss

| Structure (SMILES) | IC50 [2] [µM] | Emax [3] [%] | Kp [6] | Kp uu [7] | other results |
| --- | --- | --- | --- | --- | --- |
| COc1ccc(-c2cc(C(N)=O)nc3cc(COc4ccnc(C)c4)nn23)c(F)c1 | 0.288 | 35.4 | 2.5 to 2.7 | 0.4 to 0.6 | fraction unbound at 4 h [1]: 0.03 to 0.12; fraction unbound [4]: 0.003 to 0.009; fraction unbound at 4 h [5]: 0.03 to 0.12 |
| NC(=O)c1cc(-c2ccc(F)cc2)c2sc(CN3CCCC3)cc2n1 | 6.61 | 4.1 |  |  |  |
| Cc1ncc(OCc2cc3nc(C(N)=O)cc(-c4ccc(F)cc4)c3s2)cn1 | 0.589 | 6.9 |  |  |  |
| Cn1ccc(OCc2cc3nc(C(N)=O)cc(-c4ccc(F)cc4)c3s2)n1 | 1.51 | 1.9 |  |  |  |
| COc1ccc(-c2cc(C(N)=O)nc3cc(CN4CCOCC4)sc23)c(F)c1 | 1.41 | 2.3 |  |  |  |
| Cc1cc(OCc2cc3nc(C(N)=O)cc(-c4ccc(F)cc4)n3n2)ccn1 | > 10 |  |  |  |  |
| C[C@@H]1CN(Cc2ccc3c(c2)c(=O)c(C(N)=O)cn3-c2ccc(F)cc2)C[C@H](C)O1 |  |  |  |  | IC50 [8]: > 30 µM; IC50 [9]: 0.207 µM; Kp [10]: 0.3 |
| COc1ccc(-c2cc(C(N)=O)nc3cc(COc4cnc(C)nc4)sc23)c(F)c1 | 0.427 | 2.7 |  |  |  |
| NC(=O)c1cc(-c2ccc(F)cc2)n2nc(COc3ccnc(Br)c3)cc2n1 | 0.224 | 19.7 | 2.5 to 2.7 | 0.4 to 0.6 | fraction unbound at 4 h [1]: 0.03 to 0.12; fraction unbound [4]: 0.003 to 0.009; fraction unbound at 4 h [5]: 0.03 to 0.12 |
| NC(=O)c1cc(-c2ccc(F)cc2)c2sc(CN3CCC(F)(F)CC3)cc2n1 | 1.05 | 2.2 |  |  |  |
| [2H]C([2H])([2H])Oc1ccc(-c2cc(C(N)=O)nc3cc(COc4cnc(C)nc4)sc23)cc1 | 0.447 |  |  |  |  |
| NC(=O)c1cc(-c2ccc(F)cc2)c2sc(CN3CCOCC3)cc2n1 | 3.89 | 2.9 |  |  |  |
| Cc1ccc(OCc2cc3nc(C(N)=O)cc(-c4ccc(F)cc4)c3s2)c(C)n1 | 0.741 | 3.3 | > 2 | < 0.4 |  |
| Cc1ccc(OCc2cc3nc(C(N)=O)cc(-c4ccc(F)cc4)c3s2)cn1 | 0.676 | 2.2 | 7.99 | 0.2 | fraction unbound at 4 h [1]: 0.02; fraction unbound [4]: 0.003; fraction unbound at 4 h [5]: 0.05 |
| COc1ccc(OCc2cc3nc(C(N)=O)cc(-c4ccc(F)cc4)c3s2)cn1 | 2 | 16.8 |  |  |  |
| COc1ccc(-c2cc(C(N)=O)nc3cc(COc4ccc(F)nc4)sc23)cc1 | 2.57 | 7.2 |  |  |  |
| NC(=O)c1cc(-c2ccc(F)cc2)n2nc(CCc3ccnc(C(F)(F)F)c3)cc2n1 | 0.087 | 2.3 | 4.25 | 0.59 | fraction unbound at 4 h [1]: 0.04; fraction unbound [4]: 0.006; fraction unbound at 4 h [5]: 0.02 |
| CN(Cc1cc2nc(C(N)=O)cc(-c3ccc(F)cc3)c2s1)C1COC1 | 1.41 | 2.4 |  |  |  |
| COc1ccc(-c2cc(C(N)=O)nc3cc(COc4ccc(C(F)(F)F)nc4)nn23)c(F)c1 | 0.347 | 4.2 | 2.5 to 2.7 | 0.4 to 0.6 | fraction unbound at 4 h [1]: 0.03 to 0.12; fraction unbound [4]: 0.003 to 0.009; fraction unbound at 4 h [5]: 0.03 to 0.12 |

| Structure (SMILES) | IC50 [2] [µM] | Emax [3] [%] | Kp [6] | Kp uu [7] | other results |
| --- | --- | --- | --- | --- | --- |
| [11CH3]Oc1ccc(-c2cc(C(N)=O)nc3cc(CN4C(=O)CCC4=O)ccc23)c(F)c1 |  |  |  |  | IC50 [8]: > 30 µM; Kp [10]: 0.3 |
| NC(=O)c1cc(-c2ccc(F)cc2)n2nc(COc3ccc(C(F)(F)F)nc3)cc2n1 | > 10 |  |  |  |  |
| NC(=O)c1cc(-c2ccc(F)cc2)c2sc(CN3CCSCC3)cc2n1 | 3.63 | 2.4 |  |  |  |
| Cc1ncccc1OCc1cc2nc(C(N)=O)cc(-c3ccc(F)cc3)c2s1 | 0.759 | 3.2 | > 2 | < 0.4 |  |
| NC(=O)c1cc(-c2ccc(F)cc2)c2sc(COc3ccc(C(F)(F)F)nc3)cc2n1 | > 10 |  |  |  |  |
| NC(=O)c1cc(-c2ccc(F)cc2)c2sc(COc3ccc(F)nc3)cc2n1 | 0.891 | 13.2 | > 2 | < 0.4 |  |
| NC(=O)c1cc(-c2ccc(F)cc2)c2sc(COc3ccc(Cl)nc3)cc2n1 | 0.871 | 29.3 | > 2 | < 0.4 |  |
| NC(=O)c1cc(-c2ccc(F)cc2)c2sc(CN3CCCCC3)cc2n1 | 1.74 | 2.2 |  |  |  |
| NC(=O)c1cc(-c2ccc(F)cc2F)n2nc(COc3ccnc(C(F)(F)F)c3)cc2n1 | 0.102 | 1.5 | 2.5 to 2.7 | 0.4 to 0.6 | fraction unbound at 4 h [1]: 0.03 to 0.12; fraction unbound [4]: 0.003 to 0.009; fraction unbound at 4 h [5]: 0.03 to 0.12 |
| NC(=O)c1cc(-c2ccc(F)cc2)c2sc(COc3ccc(F)cc3)cc2n1 | > 10 |  |  |  |  |
| COc1ccc(-c2cc(C(N)=O)nc3cc(COc4ccnc(C(F)(F)F)c4)nn23)c(F)c1 | 0.148 | 2.1 | 2.5 to 2.7 | 0.4 to 0.6 | fraction unbound at 4 h [1]: 0.03 to 0.12; fraction unbound [4]: 0.003 to 0.009; fraction unbound at 4 h [5]: 0.03 to 0.12 |
| COc1ccc(-c2cc(C(N)=O)nc3cc(CN4CCOCC4)sc23)cc1 | 2.51 | 2.6 |  |  |  |
| NC(=O)c1cc(-c2ccc(F)cc2)n2nc(CCc3cccnc3)cc2n1 | 1.74 | 2.9 |  |  |  |
| NC(=O)c1cc(-c2ccc(F)cc2)c2sc(COc3ccnc(C(F)(F)F)c3)cc2n1 | 1.74 | 2.3 |  |  |  |
| NC(=O)c1cc(-c2ccc(F)cc2)c2sc(CN3CCC3)cc2n1 | > 10 |  |  |  |  |
| Cn1ccc(COc2cnc(C(N)=O)cc2-c2ccc(F)cc2)n1 |  |  |  |  | clearance [11]: 118 mL/min/kg; IC50 [12]: > 30 µM; IC50 [8]: > 30 µM; IC50 [13]: > 30 µM; IC50 [14]: > 30 µM; IC50 [15]: > 30 µM; Kp [10]: 1.9; IC50 [16]: > 30 µM; IC50 [17]: > 30 µM |
| COc1ccc(-c2cc(C(N)=O)nc3cc(COc4cnc(C)nc4)sc23)cc1 | 0.316 | 2.6 | 3.41 | 0.49 | half-life [18]: 14.3 min; fraction unbound at 4 h [1]: 0.02; Emax ([3]; tested as the 2H-labelled form): 2.8%; fraction unbound [4]: 0.003; fraction unbound at 4 h [5]: 0.01; clearance [19]: 389 mL/min/kg; Vd [20]: 6.49 L/kg |
| NC(=O)c1cc(-c2ccc(F)cc2)c2sc(COc3cncnc3)cc2n1 | 0.676 | 26.2 |  |  |  |
| NC(=O)c1cc(-c2ccc(F)cc2)n2nc(CCc3ccncc3)cc2n1 | 1.05 | 2.6 |  |  |  |
